In publication PMC5928880 (Theranostics, 2018):
Several values for one entry are separate records, joined by “and”; a condition that tells them apart may be missing. Equal values may be shown once. Read-outs that look alike come from different tables or passages of the source.

Key:
Jurkat leukemia cells = assay: Antiproliferation assay; type: cell-based, human; conditions: for inhibition at 50 µM / EC50: Jurkat; for inhibition at 50 µM: read-out: % inhibition at 50 µM, Jurkat; for EC50: read-out: Antiproliferative activity EC50, Jurkat; for Effect on growth of Jurkat cells: at 50 µM
NB4 cells = assay: Antiproliferation assay; type: cell-based, human
[1] = system: MCF-7 (breast cancer) cells; assay: Antiproliferation assay; type: cell-based, human
MV4-11 cells = assay: Antiproliferation assay; type: cell-based, human
[2] = system: normal fibroblast WI-38 cells; assay: Antiproliferation assay; type: cell-based, human
SKNO-1 cells = assay: Antiproliferation assay; type: cell-based, human
[3] = system: murine c-kit+ hematopoietic stem/progenitor cells (HSPC); assay: Colony-forming assay with hematopoietic stem/progenitor cells; type: cell-based, mouse; conditions: even at 250 nM
[4] = i.p. 100 mg/kg/day, 10 injections over 14 days
SKNO-1 leukemia [5] = assay: Subcutaneous xenograft mouse model of SKNO-1 leukemia; type: in vivo; conditions: i.p. 10 and 20 mg/kg/day, 10 injections in 14 days, NOD-SCID mice
Kasumi-1 cells [6] = assay: Antiproliferation assay; type: cell-based, human; conditions: read-out: Antiproliferative activity EC50, Kasumi-1
[7] = system: Kasumi-1 and SKNO-1 cells; assay: Antiproliferation assay, R-E leukemia cells; type: cell-based, human; conditions: more active than Dex
[8] = ref [44], [45]; cited from earlier work
Kasumi-1 cells [9] = assay: Combination treatment of Kasumi-1 cells, combination index; type: cell-based, human; conditions: Dex in combination with cytarabine, CI < 1 synergism, listed as Dex
SKNO-1 leukemia [10] = conditions: 15 mg/kg/day i.p. injection for 4 days, ref [37], cited from earlier work
myeloid leukemia cells = conditions: short course (3-7 days), high doses (20-30 mg/kg/day); ref [54]; cited from earlier work
[11] = Homo sapiens, NB-4, read-out: Antiproliferative activity EC50, NB4
[12] = Homo sapiens, MCF7, read-out: Antiproliferative activity EC50, MCF-7
[13] = Homo sapiens, MV4-11, read-out: Antiproliferative activity EC50, MV4-11
[14] = Homo sapiens, WI-38, read-out: Antiproliferative activity EC50, WI-38
[15] = Homo sapiens, SKNO-1, read-out: Antiproliferative activity EC50, SKNO-1

**Q.** With `CC=CC(=O)N(CC)c1ccccc1C` (mixture of isomers) [Crotamiton, crotamiton] as the compound, how does the inhibition at 50 µM (Jurkat leukemia cells; Homo sapiens) read?
**A.** 11.2%

**Q.** What about the EC50 (Jurkat leukemia cells; Homo sapiens) of the same compound?
**A.** > 50 µM

**Q.** With `CC(=O)c1ccc2c(c1)N(CCCN(C)C)c1ccccc1S2` [Acepromazine, acepromazine] as the compound, how does the inhibition at 50 µM (Jurkat leukemia cells; Homo sapiens) read?
**A.** 21%

**Q.** What about the EC50 (Jurkat leukemia cells; Homo sapiens) of the same compound?
**A.** > 50 µM

**Q.** Which EC50 (Jurkat leukemia cells; Homo sapiens) does the source give for `CO[C@H]1/C=C\C=C(/C)C(=O)NC2=CC(=O)C(NCCN(C)C)=C(C[C@@H](C)C[C@H](OC)[C@H](O)[C@@H](C)/C=C(\C)[C@@H]1OC(N)=O)C2=O` [Alvespimycin, alvespimycin] here?
**A.** 1.6 µM

**Q.** What about the EC50 (NB4 cells; [11]) of the same compound?
**A.** 0.055 µM

**Q.** And the EC50 [1, 12]?
**A.** 5.2 µM

**Q.** What about the EC50 (MV4-11 cells; [13]) of the same compound?
**A.** 0.09 µM

**Q.** What about the EC50 [2, 14] of the same compound?
**A.** 27 µM

**Q.** Which results are given for `C[C@H]1C[C@H]2[C@@H]3CCC4=CC(=O)C=C[C@]4(C)[C@@]3(F)[C@@H](O)C[C@]2(C)[C@@]1(O)C(=O)CO` [Betamethasone, betamethasone]?
**A.** EC50 (SKNO-1 cells; [15]): 0.059 µM; inhibition at 50 µM (Jurkat leukemia cells; Homo sapiens): 6.9%; EC50 (Jurkat leukemia cells; Homo sapiens): > 50 µM; Effect on growth of Jurkat cells (Jurkat leukemia cells): did not affect growth; Effect on colony-forming ability of murine HSPC [3]: did not significantly affect; EC50 (NB4 cells; [11]): > 50 µM; EC50 [1, 12]: > 50 µM; EC50 (MV4-11 cells; [13]): > 50 µM; EC50 [2, 14]: > 50 µM

**Q.** Which EC50 (Jurkat leukemia cells; Homo sapiens) does the source give for `CN(C)/N=N/c1[nH]cnc1C(N)=O` [Dacarbazine, dacarbazine] here?
**A.** 15.2 µM

**Q.** For `C[C@@H]1C[C@H]2[C@@H]3CCC4=CC(=O)C=C[C@]4(C)[C@@]3(F)[C@@H](O)C[C@]2(C)[C@@]1(O)C(=O)COP(=O)(O)O` [Dex-P, dexamethasone-21-phosphate], which Toxicity to mice [4] is on record?
**A.** without overt toxicities

**Q.** What about the “Survival in SKNO-1 xenograft” value (SKNO-1 leukemia [5]) of the same compound?
**A.** prolonged survivals

**Q.** And the “Tumor growth in SKNO-1 xenograft” value (SKNO-1 leukemia [5])?
**A.** significant tumor growth inhibition

**Q.** What about the EC50 (SKNO-1 cells; read-out: Antiproliferative activity EC50, SKNO-1, SKNO-1) of the same compound?
**A.** 0.017 µM

**Q.** And the EC50 (Jurkat leukemia cells)?
**A.** > 50 µM

**Q.** What about the “Effect on colony-forming ability of murine HSPC” value [3] of the same compound?
**A.** did not significantly affect

**Q.** And the EC50 (Kasumi-1 cells [6])?
**A.** 0.009 µM

**Q.** What about the “Activity compared to parent compound Dex (fold more active)” value [7] of the same compound?
**A.** ~ 2 fold

**Q.** And the t1/2 in humans [8]?
**A.** 4.7 h

**Q.** And the EC50 (NB4 cells; read-out: Antiproliferative activity EC50, NB4, NB4)?
**A.** > 50 µM

**Q.** What about the EC50 ([1]; read-out: Antiproliferative activity EC50, MCF-7, MCF-7) of the same compound?
**A.** > 50 µM

**Q.** What about the EC50 (MV4-11 cells; read-out: Antiproliferative activity EC50, MV4-11, MV4-11) of the same compound?
**A.** > 50 µM

**Q.** And the EC50 ([2]; read-out: Antiproliferative activity EC50, WI-38, WI-38)?
**A.** > 50 µM

**Q.** With `C[C@@H]1C[C@H]2[C@@H]3CCC4=CC(=O)C=C[C@]4(C)[C@@]3(F)[C@@H](O)C[C@]2(C)[C@@]1(O)C(=O)CO` [Dexamethasone, dexamethasone] as the compound, how does the EC50 (SKNO-1 cells; [15]) read?
**A.** 0.029 µM

**Q.** And the EC50 (Jurkat leukemia cells; Homo sapiens)?
**A.** > 50 µM

**Q.** What about the “Combination index (CI)” value (Kasumi-1 cells [9]) of the same compound?
**A.** 0.13-0.75 and 0.13 to 0.75

**Q.** What about the “In vivo activity (tumor burden) in mouse model of SKNO-1 leukemia” value (SKNO-1 leukemia [10]) of the same compound?
**A.** did not reduce in vivo tumor burden

**Q.** And the “In vivo activity (tumor burden) in mouse model of SKNO-1 leukemia” value (SKNO-1 leukemia [10]; listed as Dex)?
**A.** no in vivo activity

**Q.** What about the EC50 (NB4 cells; [11]) of the same compound?
**A.** > 50 µM

**Q.** What about the EC50 [1, 12] of the same compound?
**A.** > 50 µM

**Q.** And the EC50 (MV4-11 cells; [13])?
**A.** > 50 µM

**Q.** What about the EC50 [2, 14] of the same compound?
**A.** > 50 µM

**Q.** With `Cc1c(Nc2ncccc2C(=O)O)cccc1C(F)(F)F` [Fluninxin] as the compound, how does the “Effect on growth of Jurkat cells” value (Jurkat leukemia cells) read?
**A.** inactive

**Q.** And the EC50 (Jurkat leukemia cells)?
**A.** ~50 µM

**Q.** What about the EC50 (Kasumi-1 cells [6]) of the same compound?
**A.** 14.7 µM

**Q.** Which results are given for `C[C@]12CCC(=O)C=C1CC[C@@H]1[C@@H]2[C@@H](O)C[C@@]2(C)[C@H]1CC[C@]2(O)C(=O)CO` [Hydrocortisone, hydrocortisone]?
**A.** EC50 (SKNO-1 cells; [15]): 0.41 µM; EC50 (Jurkat leukemia cells; Homo sapiens): > 50 µM

**Q.** What does the source list for `COc1ccc2cc(CCC(C)=O)ccc2c1` [Nabumetone]?
**A.** inhibition at 50 µM (Jurkat leukemia cells; Homo sapiens): -3.5%; EC50 (Jurkat leukemia cells; Homo sapiens): > 50 µM; Effect on growth of Jurkat cells (Jurkat leukemia cells): inactive; EC50 (Kasumi-1 cells [6]): 18.5 µM

**Q.** Which EC50 (SKNO-1 cells; [15]) does the source give for `C[C@]12C=CC(=O)C=C1CC[C@@H]1[C@@H]2[C@@H](O)C[C@@]2(C)[C@H]1CC[C@]2(O)C(=O)CO` [Prednisolone, prednisolone] here?
**A.** 0.15 µM

**Q.** And the EC50 (Jurkat leukemia cells; Homo sapiens)?
**A.** > 50 µM

**Q.** What does the source list for `CCCNCC(O)COc1ccccc1C(=O)CCc1ccccc1` (centres unmarked) [Propafenone, propafenone]?
**A.** inhibition at 50 µM (Jurkat leukemia cells; Homo sapiens): 2.5%; EC50 (Jurkat leukemia cells; Homo sapiens): > 50 µM

**Q.** For `COc1cc2ccc(=O)oc2cc1O` [Scopoletin, scopoletin], which inhibition at 50 µM (Jurkat leukemia cells; Homo sapiens) is on record?
**A.** 29.4%

**Q.** And the EC50 (Jurkat leukemia cells; Homo sapiens)?
**A.** > 50 µM

**Q.** What does the source list for `C=CCNC1=C2C[C@@H](C)C[C@H](OC)[C@H](O)[C@@H](C)/C=C(\C)[C@H](OC(N)=O)[C@@H](OC)/C=C\C=C(/C)C(=O)NC(=CC1=O)C2=O` [Tanespimycin, tanespimycin]?
**A.** EC50 (Jurkat leukemia cells; Homo sapiens): ~50 µM; EC50 (NB4 cells; [11]): 0.42 µM; EC50 [1, 12]: > 50 µM; EC50 (MV4-11 cells; [13]): 0.52 µM; EC50 [2, 14]: > 50 µM

**Q.** Which “Differentiation of myeloid leukemia cells in children with AML” value (myeloid leukemia cells) does the source give for `C[C@H]1C[C@@H]2[C@H]([C@@H](O)C[C@@]3(C)[C@H]2CC[C@]3(O)C(=O)CO)[C@@]2(C)C=CC(=O)C=C12` [methylprednisolone] here?
**A.** induce differentiation of myeloid leukemia cells
